According to PubChem BioAssay (NCI):
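Assay format: 96-well plates, 48-hour exposure. GI50 is the concentration that inhibits growth by half. Definition used: TGI = concentration required for complete inhibition of growth.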

Columns and labels:
Assay in all cases: NCI tumour cell line growth inhibition, 48 h
[1] = test system: 786-0 renal
[2] = test system: A549 NSCLC
[3] = test system: ACHN renal
[4] = test system: BT-549 breast
[5] = test system: CAKI-1 renal
[6] = test system: COLO 205 colon
[7] = test system: DU-145 prostate
[8] = test system: EKVX NSCLC
[9] = test system: HCC-2998 colon
[10] = test system: HCT-116 colon
[11] = test system: HCT-15 colon
[12] = test system: HL-60(TB) leukemia
[13] = test system: HOP-62 NSCLC
[14] = test system: HOP-92 NSCLC
[15] = test system: HS 578T breast
[16] = test system: IGROV1 ovarian
[17] = test system: K-562 leukemia
[18] = test system: KM12 colon
[19] = test system: LOX IMVI melanoma
[20] = test system: M14 melanoma
[21] = test system: MCF7 breast
[22] = test system: MDA-MB-231 breast
[23] = test system: MDA-MB-435
[24] = test system: NCI-H23 lung
[25] = test system: NCI-H460 lung
[26] = test system: NCI-H522 lung
[27] = test system: NCI/ADR-RES ovarian
[28] = test system: OVCAR-3 ovarian
[29] = test system: OVCAR-4 ovarian
[30] = test system: OVCAR-5 ovarian
[31] = test system: OVCAR-8 ovarian
[32] = test system: PC-3 prostate
[33] = test system: RPMI-8226 leukemia
[34] = test system: RXF 393 renal
[35] = test system: SF-268 CNS
[36] = test system: SF-295 CNS
[37] = test system: SF-539 CNS
[38] = test system: SK-MEL-2 melanoma
[39] = test system: SK-MEL-28 melanoma
[40] = test system: SK-MEL-5 melanoma
[41] = test system: SK-OV-3 ovarian
[42] = test system: SN12C renal
[43] = test system: SNB-19 CNS
[44] = test system: SR leukemia
[45] = test system: SW-620 colon
[46] = test system: T-47D breast
[47] = test system: TK-10 renal
[48] = test system: U251 CNS
[49] = test system: UACC-257 melanoma
[50] = test system: UACC-62 melanoma
[51] = test system: UO-31 renal
[52] = test system: CCRF-CEM leukemia
[53] = test system: HT29 colon
[54] = test system: MALME-3M melanoma
[55] = test system: MOLT-4 leukemia
[56] = test system: NCI-H226 lung

## Oc1ccc(Nc2nc3ccccc3c3occc23)cc1
[1]
  GI50: 12.2 µM
  TGI: 26.8 µM
[2]
  GI50: 14.4 µM
  TGI: 52.1 µM
[3]
  GI50: 4.54 µM
  TGI: 29.4 µM
[4]
  GI50: 6.72 µM
  TGI: 34.6 µM
[5]
  GI50: 12.1 µM
  TGI: 28.1 µM
[6]
  GI50: 18.9 µM
  TGI: 50.1 µM
[7]
  GI50: 11.3 µM
  TGI: 23.4 µM
[8]
  GI50: 14.5 µM
  TGI: 39.2 µM
[9]
  GI50: 11.4 µM
  TGI: 23.7 µM
[10]
  GI50: 16.3 µM
  TGI: 34.5 µM
[11]
  GI50: 14.3 µM
  TGI: 40.5 µM
[12]
  GI50: 10.2 µM
  TGI: > 100 µM
[13]
  GI50: 16.9 µM
  TGI: > 100 µM
[14]
  GI50: 13.9 µM
  TGI: 32 µM
[15]
  GI50: 16.5 µM
  TGI: 45.4 µM
[16]
  GI50: 2.93 µM
  TGI: 23.5 µM
[17]
  GI50: 9.84 µM
  TGI: > 100 µM
[18]
  GI50: 15.5 µM
  TGI: 38.6 µM
[19]
  GI50: 2.21 µM
  TGI: 15.9 µM
[20]
  GI50: 14.2 µM
  TGI: 34.6 µM
[21]
  GI50: 11.5 µM
  TGI: 44.4 µM
[22]
  GI50: 5.34 µM
  TGI: 25.7 µM
[23]
  GI50: 9.77 µM
  TGI: 21.6 µM
[24]
  GI50: 12.4 µM
  TGI: 28.5 µM
[25]
  GI50: 12.6 µM
  TGI: 36.1 µM
[26]
  GI50: 9.03 µM
  TGI: 26.1 µM
[27]
  GI50: 16.2 µM
  TGI: 31.5 µM
[28]
  GI50: 5.8 µM
  TGI: 22.8 µM
[29]
  GI50: 12.3 µM
  TGI: 98.9 µM
[30]
  GI50: 15.6 µM
  TGI: 38.3 µM
[31]
  GI50: 17.1 µM
  TGI: 58.8 µM
[32]
  GI50: 16.1 µM
  TGI: 66.4 µM
[33]
  GI50: 7.63 µM
  TGI: 72.6 µM
[34]
  GI50: 11.3 µM
  TGI: 41.3 µM
[35]
  GI50: 11.4 µM
  TGI: 31.6 µM
[36]
  GI50: 11 µM
  TGI: 23.9 µM
[37]
  GI50: 16.5 µM
  TGI: 33.7 µM
[38]
  GI50: 18.2 µM
  TGI: 42.1 µM
[39]
  GI50: 17.6 µM
  TGI: 45.6 µM
[40]
  GI50: 8.15 µM
  TGI: 21.9 µM
[41]
  GI50: 16.2 µM
  TGI: 33.7 µM
[42]
  GI50: 12.2 µM
  TGI: 26.5 µM
[43]
  GI50: 17.2 µM
  TGI: 50.5 µM
[44]
  GI50: 31.4 µM
  TGI: > 100 µM
[45]
  GI50: 19.7 µM
  TGI: 50.5 µM
[46]
  GI50: 17 µM
  TGI: 51.2 µM
[47]
  GI50: 13 µM
  TGI: 27.1 µM
[48]
  GI50: 11.3 µM
  TGI: 26.1 µM
[49]
  GI50: 12.9 µM
  TGI: 30.7 µM
[50]
  GI50: 11.7 µM
  TGI: 23.9 µM
[51]
  GI50: 10.1 µM
  TGI: 33.3 µM

## O=C1C(Cl)=C(Nc2cccc(O)c2)C(=O)N1CCc1ccccc1
[1]
  GI50: 19.2 µM
  TGI: 36.6 µM
[2]
  GI50: 20.6 µM
  TGI: 46.4 µM
[3]
  GI50: 22.9 µM
  TGI: 47.5 µM
[4]
  GI50: 17.9 µM
  TGI: 47.1 µM
[5]
  GI50: 22.5 µM
  TGI: 56.3 µM
[52]
  GI50: 12.6 µM
  TGI: 69.4 µM
[6]
  GI50: 33.2 µM
  TGI: > 100 µM
[7]
  GI50: 15.3 µM
  TGI: 32.5 µM
[8]
  GI50: 19.3 µM
  TGI: 40.9 µM
[10]
  GI50: 24.3 µM
  TGI: 73.3 µM
[11]
  GI50: 22.4 µM
  TGI: 57.8 µM
[13]
  GI50: 19.2 µM
  TGI: 38.4 µM
[14]
  GI50: 15.9 µM
  TGI: 36.4 µM
[15]
  GI50: 17.5 µM
  TGI: 40.5 µM
[53]
  GI50: 24.3 µM
  TGI: 82.5 µM
[16]
  GI50: 15 µM
  TGI: 35.4 µM
[17]
  GI50: 16.8 µM
  TGI: 63.9 µM
[18]
  GI50: 15.5 µM
  TGI: 34 µM
[19]
  GI50: 16.9 µM
  TGI: 39.6 µM
[20]
  GI50: 17.7 µM
  TGI: 37.9 µM
[54]
  GI50: 16.2 µM
  TGI: 33 µM
[21]
  GI50: 14.4 µM
  TGI: 33.6 µM
[22]
  GI50: 23.3 µM
  TGI: 44.4 µM
[23]
  GI50: 15.7 µM
  TGI: 37.1 µM
[55]
  GI50: 9.4 µM
  TGI: 59 µM
[56]
  GI50: 22 µM
  TGI: 45.6 µM
[24]
  GI50: 17.7 µM
  TGI: 36.4 µM
[25]
  GI50: 18 µM
  TGI: 39.8 µM
[26]
  GI50: 13.2 µM
  TGI: 29.2 µM
[27]
  GI50: 20.1 µM
  TGI: 49 µM
[28]
  GI50: 15.4 µM
  TGI: 34.3 µM
[29]
  GI50: 20.1 µM
  TGI: 55.3 µM
[30]
  GI50: 20.7 µM
  TGI: 46.8 µM
[31]
  GI50: 21.5 µM
  TGI: 51.1 µM
[32]
  GI50: 22.3 µM
  TGI: 62.7 µM
[33]
  GI50: 5.03 µM
  TGI: 37.6 µM
[34]
  GI50: 25.9 µM
  TGI: 71.4 µM
[35]
  GI50: 17 µM
  TGI: 42.2 µM
[36]
  GI50: 21.8 µM
  TGI: 46.6 µM
[38]
  GI50: 14.5 µM
  TGI: 33.7 µM
[39]
  GI50: 19.8 µM
  TGI: 40.8 µM
[40]
  GI50: 20.2 µM
  TGI: 38 µM
[41]
  GI50: 32.1 µM
  TGI: > 100 µM
[42]
  GI50: 16 µM
  TGI: 32.6 µM
[43]
  GI50: 22.6 µM
  TGI: 49.4 µM
[44]
  GI50: 4.61 µM
  TGI: 64.3 µM
[45]
  GI50: 30.9 µM
  TGI: 77.5 µM
[46]
  GI50: 40.5 µM
  TGI: > 100 µM
[47]
  GI50: 23.1 µM
  TGI: 48.4 µM
[48]
  GI50: 19.1 µM
  TGI: 42.1 µM
[50]
  GI50: 13.9 µM
  TGI: 29.1 µM
[51]
  GI50: 16.7 µM
  TGI: 36.8 µM
